Data reported in patent publication US20250368958A1, “CAR-EXPRESSING PLURIPOTENT STEM CELL-DERIVED NEUTROPHILS LOADED WITH DRUG NANOPARTICLES AND USES THEREOF” (Purdue Research Foundation, priority 2022, published 2025).

Legend:
U87MG tumor spheroids = experiment: 3D tumor spheroid model; assay type: cell-based, human; conditions: drug delivered by CAR-neutrophils@R—SiO2 NPs
Protocol: A three-dimensional (3D) tumor spheroid model was then employed to evaluate the tumor-penetration ability of R—SiO2-TPZ NP-loaded CAR-neutrophils (FIG. 6G). 3D tumor spheroids were generated by the hanging-drop method. Briefly, U87MG cells were suspended in minimum essential medium (MEM) medium with 10% FBS and 0.3% methylcellulose at 2×10^6 cells/mL and deposited onto an inverted lid of 96-well plate as an individual drop using a 20 μL pipettor. The cover lid was then placed back onto the PBS-filled bottom chamber, and the whole plate was incubated at 37° C. and 5% CO2. The hanging drops were monitored daily until cell aggregates were formed in 5-7 days. Each cell aggregate was transferred to a single well of a 24-well plate for subsequent experiments.
To assess the tumor penetration capability of CLTX-CAR neutrophils, 2×10^5 neutrophils/well were added to the wells of 24-well plate and incubated with tumor spheroids. After co-incubation for 24 hours, tumor spheroids were fixed and stained for CD45 and DAPI. For cytotoxicity analysis, both live/dead cell staining and the CytoTox-Glo™ Cytotoxicity Assay kit (Promega Corporation, Madison, WI) were employed. The CytoTox-Glo™ Cytotoxicity Assay was quantified by the SpectraMax iD3 microplate reader (Molecular Devices, Sunnyvale, CA).

[1] = tested on: tumor-neutrophil co-culture; experiment: Tumor lysis with phagocytosis or ROS inhibitor; assay type: cell-based
Protocol: FIG. 16A is a volcano map of bulk RNA-Seq analysis of U87MG cells under indicated treatments. FIGS. 16B and 16C show tumor lysis measurements of the indicated groups treated with 5 μM cytochalasin D (CytoD) or 5 mM N-acetylcysteine (NAC), respectively.
RNA sequencing (RNA-seq) analysis on tumor cells was performed to elucidate potential molecular mechanism underlying enhanced anti-tumor cytolysis of neutrophils by CAR expression and R—SiO2-TPZ NP. […] To further understand enhanced anti-tumor activities of R—SiO2-TPZ-loaded CAR-neutrophils, a phagocytosis inhibitor cytochalasin D and a reactive oxygen species (ROS) inhibitor N-acetyl-cysteine (NAC) were applied to the tumor-neutrophil co-culture.

Nc1nc2cc(CC[C@H]3C[C@@H](n4ccc5c(N)ncnc54)[C@H](O)[C@@H]3O)ccc2cc1Br [JNJ64619187]
killing of GBM cells in 3D tumor models (U87MG tumor spheroids): efficiently kill GBM cells

C=C1[C@@H](C)[C@H]2[C@H](Cc3ccccc3)NC(=O)[C@]23[C@H](OC(C)=O)/C=C/[C@@](C)(O)C(=O)[C@@H](C)C/C=C/[C@H]3[C@@H]1O [cytochalasin D]
cytolysis of tumor cells by CAR-neutrophils in presence of inhibitor ([1]; 5 μM): significantly reduced

CC(=O)N[C@@H](CS)C(=O)O [NAC, N-acetyl-cysteine]
cytolysis of tumor cells by CAR-neutrophils in presence of inhibitor ([1]; 5 mM): significantly reduced
